Measured values reported in ChEMBL document CHEMBL5236585, “Design, synthesis and antifungal activities of novel triazole derivatives with selenium-containing hydrophobic side chains” (Bioorg Med Chem Lett, 2022).

Columns and labels:
[1] = test system: Candida parapsilosis; experiment: Antifungal activity against Candida parapsilosis 22019 assessed as inhibition of fungal growth by microdilution method; format: functional; settings: Lodderomyces parapsilosis
[2] = biological target: T1, Lanosterol 14-alpha demethylase (Candida albicans (strain SC5314 / ATCC MYA-2876) (Yeast), UniProt P10613); experiment: Inhibition of CYP51 in Candida albicans SC5314 assessed as ergosterol level at 8 ug/ml by GC-MS analysis (reference value: 98.3 %); design: scale not given: the % may be the effect or the level left; settings: at 8 µg/mL
[3] = test system: Candida albicans; experiment: Antifungal activity against Candida albicans ATCC SC5314 assessed as inhibition of fungal growth by microdilution method; format: functional
[4] = biological target: T1, Lanosterol 14-alpha demethylase; experiment: Inhibition of CYP51 in Candida albicans SC5314 assessed as obtusifoliol level at 8 ug/ml by GC-MS analysis (reference value: 0 %); design: scale not given: the % may be the effect or the level left; settings: at 8 µg/mL
[5] = test system: Candida albicans; experiment: Antifungal activity against Candida albicans CPCC 400616 assessed as inhibition of fungal growth by microdilution method; format: functional
[6] = biological target: T1, Lanosterol 14-alpha demethylase; experiment: Inhibition of CYP51 in Candida albicans SC5314 assessed as eburicol level at 8 ug/ml by GC-MS analysis (reference value: 0 %); design: scale not given: the % may be the effect or the level left; settings: at 8 µg/mL
[7] = test system: HL-60; experiment: Cytotoxicity against human HL-60 cells assessed as inhibition of cell growth by MTT assay; format: functional, cell-based
[8] = test system: Candida tropicalis; experiment: Antifungal activity against Candida tropicalis CGMCC 2.3739 assessed as inhibition of fungal growth by microdilution method; format: functional
[9] = test system: Nakaseomyces glabratus; experiment: Antifungal activity against clinical isolate Candida glabrata assessed as inhibition of fungal growth by microdilution method; format: functional
[10] = biological target: T1, Lanosterol 14-alpha demethylase; experiment: Inhibition of CYP51 in Candida albicans SC5314 assessed as obtusifoliol level at 16 ug/ml by GC-MS analysis (reference value: 0 %); design: scale not given: the % may be the effect or the level left; settings: at 16 µg/mL
[11] = test system: MDA-MB-231; experiment: Cytotoxicity against human MDA-MB-231 cells assessed as inhibition of cell growth by MTT assay; format: functional, cell-based
[12] = biological target: T1, Lanosterol 14-alpha demethylase; experiment: Inhibition of CYP51 in Candida albicans SC5314 assessed as lanosterol level at 64 ug/ml by GC-MS analysis (reference value: 1.7 %); design: scale not given: the % may be the effect or the level left; settings: at 64 µg/mL
[13] = biological target: T1, Lanosterol 14-alpha demethylase; experiment: Inhibition of CYP51 in Candida albicans SC5314 assessed as eburicol level at 32 ug/ml by GC-MS analysis (reference value: 0 %); design: scale not given: the % may be the effect or the level left; settings: at 32 µg/mL
[14] = biological target: T1, Lanosterol 14-alpha demethylase; experiment: Inhibition of CYP51 in Candida albicans SC5314 assessed as obtusifoliol level at 32 ug/ml by GC-MS analysis (reference value: 0 %); design: scale not given: the % may be the effect or the level left; settings: at 32 µg/mL
[15] = test system: Aspergillus fumigatus; experiment: Antifungal activity against Aspergillus fumigatus CGMCC 3.7795 assessed as inhibition of fungal growth by microdilution method; format: functional
[16] = biological target: T1, Lanosterol 14-alpha demethylase; experiment: Inhibition of CYP51 in Candida albicans SC5314 assessed as ergosterol level at 32 ug/ml by GC-MS analysis (reference value: 98.3 %); design: scale not given: the % may be the effect or the level left; settings: at 32 µg/mL
[17] = test system: Pichia kudriavzevii; experiment: Antifungal activity against Candida krusei AS 2.1045 assessed as inhibition of fungal growth by microdilution method; format: functional
[18] = biological target: T1, Lanosterol 14-alpha demethylase; experiment: Inhibition of CYP51 in Candida albicans SC5314 assessed as eburicol level at 16 ug/ml by GC-MS analysis (reference value: 0 %); design: scale not given: the % may be the effect or the level left; settings: at 16 µg/mL
[19] = biological target: T1, Lanosterol 14-alpha demethylase; experiment: Inhibition of CYP51 in Candida albicans SC5314 assessed as eburicol level at 64 ug/ml by GC-MS analysis (reference value: 0 %); design: scale not given: the % may be the effect or the level left; settings: at 64 µg/mL
[20] = test system: Cryptococcus neoformans; experiment: Antifungal activity against Cryptococcus neoformans CGMCC 2.3161 assessed as inhibition of fungal growth by microdilution method; format: functional
[21] = test system: PC-3; experiment: Cytotoxicity against human PC-3 cells assessed as inhibition of cell growth by MTT assay; format: functional, cell-based
[22] = biological target: T1, Lanosterol 14-alpha demethylase; experiment: Inhibition of CYP51 in Candida albicans SC5314 assessed as lanosterol level at 16 ug/ml by GC-MS analysis (reference value: 1.7 %); design: scale not given: the % may be the effect or the level left; settings: at 16 µg/mL
[23] = biological target: T1, Lanosterol 14-alpha demethylase; experiment: Inhibition of CYP51 in Candida albicans SC5314 assessed as ergosterol level at 64 ug/ml by GC-MS analysis (reference value: 98.3 %); design: scale not given: the % may be the effect or the level left; settings: at 64 µg/mL
[24] = biological target: T1, Lanosterol 14-alpha demethylase; experiment: Inhibition of CYP51 in Candida albicans SC5314 assessed as obtusifoliol level at 64 ug/ml by GC-MS analysis (reference value: 0 %); design: scale not given: the % may be the effect or the level left; settings: at 64 µg/mL
[25] = biological target: T1, Lanosterol 14-alpha demethylase; experiment: Inhibition of CYP51 in Candida albicans SC5314 assessed as lanosterol level at 32 ug/ml by GC-MS analysis (reference value: 1.7 %); design: scale not given: the % may be the effect or the level left; settings: at 32 µg/mL
[26] = biological target: T1, Lanosterol 14-alpha demethylase; experiment: Inhibition of CYP51 in Candida albicans SC5314 assessed as ergosterol level at 16 ug/ml by GC-MS analysis (reference value: 98.3 %); design: scale not given: the % may be the effect or the level left; settings: at 16 µg/mL
[27] = biological target: T1, Lanosterol 14-alpha demethylase; experiment: Inhibition of CYP51 in Candida albicans SC5314 assessed as lanosterol level at 8 ug/ml by GC-MS analysis (reference value: 1.7 %); design: scale not given: the % may be the effect or the level left; settings: at 8 µg/mL

T1 sequence (P10613 whole entry): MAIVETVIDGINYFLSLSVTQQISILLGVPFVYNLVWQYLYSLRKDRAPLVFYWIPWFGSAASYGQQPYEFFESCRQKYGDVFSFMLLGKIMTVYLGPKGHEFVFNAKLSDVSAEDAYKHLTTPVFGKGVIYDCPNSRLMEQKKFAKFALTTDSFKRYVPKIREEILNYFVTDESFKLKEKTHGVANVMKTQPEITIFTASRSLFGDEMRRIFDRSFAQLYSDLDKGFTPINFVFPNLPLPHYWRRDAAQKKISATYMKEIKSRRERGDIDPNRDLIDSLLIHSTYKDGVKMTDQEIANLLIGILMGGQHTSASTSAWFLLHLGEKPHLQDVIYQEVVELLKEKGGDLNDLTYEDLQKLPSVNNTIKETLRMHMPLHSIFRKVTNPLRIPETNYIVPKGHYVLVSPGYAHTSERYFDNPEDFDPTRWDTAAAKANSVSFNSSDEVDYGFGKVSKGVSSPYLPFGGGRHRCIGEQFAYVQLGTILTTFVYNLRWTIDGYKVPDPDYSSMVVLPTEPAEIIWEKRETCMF

## OC(C[Se]Cc1ccccc1Br)(Cn1cncn1)c1ccc(F)cc1F (configuration not stated)
[1]
  MIC: 0.125 µg/mL
[2]
  Activity: 3.5%
[3]
  MIC: 0.01 µg/mL
[4]
  Activity: 11.1%
[5]
  MIC: 0.25 µg/mL
[6]
  Activity: 66.2%
[7]
  IC50: 18.4 µM
[8]
  MIC: 0.25 µg/mL
[9]
  MIC: 4 µg/mL
[10]
  Activity: 11.3%
[11]
  IC50: 17.9 µM
[12]
  Activity: 19.6%
[13]
  Activity: 69.2%
[14]
  Activity: 9.28%
[15]
  MIC: 2 µg/mL
[16]
  Activity: 0.48%
[17]
  MIC: 0.25 µg/mL
[18]
  Activity: 66.7%
[19]
  Activity: 69.3%
[20]
  MIC: 1 µg/mL
[21]
  IC50: 15.6 µM
[22]
  Activity: 20.3%
[23]
  Activity: 0.18%
[24]
  Activity: 11.9%
[25]
  Activity: 21.1%
[26]
  Activity: 2.1%
[27]
  Activity: 19.2%
